Experiment [1] has as its system MV4-11 (FLT3 ITD+/+ mutant type). The experiment is described as follows: In vitro growth inhibition (GI50), MV4-11. As to conditions: Homo sapiens, MV4-11; Cell lines of leukemia; read-out: GI 50 MV4-11 FLT3 (ITD +/+). The class given is cell-based, human.
Experiment [2] has as its system MOLM-13 (FLT3 ITD+/− mutant type). The experiment is described as follows: In vitro growth inhibition (GI50), MOLM-13. It counts as cell-based, human. The settings on record: Homo sapiens, MOLM-13; Cell lines of leukemia; read-out: GI 50 MOLM-13 FLT3 (ITD+/−).
The next experiment relates to RS4; 11 (FLT3 wild type). The experiment is described as follows: In vitro growth inhibition (GI50), RS4; 11. It counts as cell-based, human. The settings on record: Homo sapiens, RS4-11; Cell lines of leukemia; read-out: GI 50 RS4: 11 FLT3 (WT).
The test system of experiment [3] is K562 (FLT3 negative expression, positive expression of BCR-ABL fusion protein). Nature of the experiment: In vitro growth inhibition (GI50), K562. The class given is cell-based. As to conditions: Homo sapiens, Cell lines of leukemia, read-out: GI 50 K562 BCR-ABL.
Experiment [4] concerns RAMOS (positive expression of Brutons tyrosine protein kinase). Nature of the experiment: In vitro growth inhibition (GI50), RAMOS. It counts as cell-based. The settings on record: Homo sapiens, Cell lines of leukemia, read-out: GI 50 Ramos BTK.
For another experiment, the system named is U937 (FLT3 wild-type). The experiment is described as follows: In vitro growth inhibition (GI50), U937. It counts as cell-based. The settings on record: Homo sapiens, U-937; Cell lines of leukemia; read-out: GI 50 U937 FLT 3(WT).
The test system of experiment [5] is Kasumi-1 (c-Kit N822K mutant type). Nature of the experiment: In vitro growth inhibition (GI50), Kasumi-1. The class given is cell-based. The settings on record: Homo sapiens, Cell lines of leukemia, read-out: GI 50 Kasumi-1 Kit (N822K). Summed up: (§1)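 After 3–5 days of treatment (top concentration 5,000 nM, serially diluted 2- or 10-fold to 0.01 nM, solvent ≤1%), viability was read by CCK8 at OD450. Growth rate was normalised to the time-zero and solvent-control wells, and GI50 was derived from the curve. Cultures in RPMI1640 + 10% FBS.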

For experiment [6], the system named is KG-1 (expressing FGFR1OP2-FGFR1 fusion protein). Nature of the experiment: In vitro growth inhibition (GI50), KG-1. The class given is cell-based. As to conditions: Homo sapiens; Cell lines of leukemia; read-out: GI 50 KG-1 FGFR1OP 2-FGFR1.
The test system of another experiment is HL-60 (FLT3 wild type). Nature of the experiment: In vitro growth inhibition (GI50), HL-60. The class given is cell-based. As to conditions: Homo sapiens, Cell lines of leukemia, read-out: GI 50 HL60 FLT3 (WT). Summed up: as §1
The subject of experiment [7] is OCI-AML3 (NPMc+ mutant type). The experiment is described as follows: In vitro growth inhibition (GI50), OCI-AML3. As to conditions: Homo sapiens, OCI-AML-3; Cell lines of leukemia; read-out: GI 50 OCI- AML3 NPMc+. It counts as cell-based.

We go through 12 compounds from patent US10647680B2, “Urea compound, preparation method therefor and medical use thereof” (Ancureall Pharmaceutical (Shanghai) Co., Ltd., priority 2016, dated 2020).

In the case of `COCCOc1ccc2ncn(-c3ccc(NC(=O)Nc4cc(C(C)(C)C)on4)cc3)c2c1` [Compound 26, 1-(5-tert-butyl-isoxazol-3-yl)-3-{4-[6-(2-methoxyl-ethoxyl)-benzimidazol-1-yl]-phenyl]urea], the GI50 in experiment [1] is 0.1 to 1 nM; in experiment [2], 0.1 to 1 nM; with RS4; 11 (FLT3 wild type) it was 100 to 1000 nM; in experiment [3], 100 to 1000 nM; in experiment [4] it was over 1000 nM; in the experiment with U937 (FLT3 wild-type), over 1000 nM. Also, the GI50 (in experiment [5]; in experiment [6]; in the experiment on HL-60 (FLT3 wild type); in experiment [7]) was over 1000 nM throughout.

For the compound `CN(C)CCN(C)c1ccc2ncn(-c3ccc(NC(=O)Nc4cc(C(C)(C)C)on4)cc3)c2c1` [Compound 28, 1-(5-tert-butyl-isoxazol-3-yl)-3-(4-{6-[(2-dimethylamino-ethyl)-methyl-amino]-benzimidazol-1-yl}-phenyl)-urea], the GI50 in experiment [1] is 1 to 10 nM; in experiment [2], 1 to 10 nM; with RS4; 11 (FLT3 wild type), over 1000 nM; in experiment [3], over 1000 nM; in experiment [4], over 1000 nM; in the experiment on U937 (FLT3 wild-type), over 1000 nM. The GI50 (in experiment [5]; in [6]; in the experiment on HL-60 (FLT3 wild type); in experiment [7]) was over 1000 nM each time.

As to `CN1CCN(c2ccc3ncn(-c4ccc(NC(=O)Nc5cc(C(C)(C)C)on5)cc4)c3c2)CC1` [Compound 29, 1-(5-tert-butyl-isoxazol-3-yl)-3-{4-[6-(4-methyl-piperazin-1-yl)-benzimidazol-1-yl]-phenyl}-urea], the GI50 is 10 to 100 nM in [1]; 10 to 100 nM in [2]; over 1000 nM with RS4; 11 (FLT3 wild type); over 1000 nM in [3]; over 1000 nM in [4]; over 1000 nM in the experiment on U937 (FLT3 wild-type). For the same compound, the GI50 (in [5]; in [6]; in the experiment on HL-60 (FLT3 wild type); in [7]) was over 1000 nM in each case.

For `CC(C)(C)c1cc(NC(=O)Nc2ccc(-n3cnc4cccc(OCCN5CCOCC5)c43)cc2)no1` [Compound 30, 1-(5-tert-butyl-isoxazol-3-yl)-3-{4-[7-(2-morpholin-4-yl-ethoxyl)-benzimidazol-1-yl]-phenyl}-urea], the GI50 (in experiment [1]; in experiment [2]; with RS4; 11 (FLT3 wild type); in experiment [3]; in experiment [4]; with U937 (FLT3 wild-type)) was over 1000 nM throughout. The GI50 in experiment [5] is over 1000 nM; in experiment [6], over 1000 nM; in the experiment on HL-60 (FLT3 wild type), 100 to 1000 nM; in experiment [7], over 1000 nM.

For `COc1cc2ncn(-c3ccc(NC(=O)Nc4cc(C(C)(C)C)on4)cc3)c2cc1OC` [Compound 31, 1-(5-tert-butyl-isoxazol-3-yl)-3-[4-(5,6-dimethoxyl-benzimidazol-1-yl)-phenyl]-urea], the GI50 in experiment [1] is 0.1 to 1 nM; in [2], 0.1 to 1 nM; in the experiment on RS4; 11 (FLT3 wild type) it was 100 to 1000 nM; in experiment [3], 100 to 1000 nM; in experiment [4] it was 100 to 1000 nM; with U937 (FLT3 wild-type), over 1000 nM. Also, the GI50 was 100 to 1000 nM in [5], over 1000 nM in experiment [6], over 1000 nM with HL-60 (FLT3 wild type) and over 1000 nM in experiment [7].

Regarding `Cc1cc2ncn(-c3ccc(NC(=O)Nc4cc(C(C)(C)C)on4)cc3)c2cc1C` [Compound 32, 1-(5-tert-butyl-isoxazol-3-yl)-3-[4-(5,6-dimethyl-benzimidazol-1-yl)-phenyl]-urea], the GI50 in experiment [1] was 1 to 10 nM; in [2], 1 to 10 nM; in the experiment with RS4; 11 (FLT3 wild type) it was over 1000 nM; in experiment [3], over 1000 nM; in experiment [4], over 1000 nM; with U937 (FLT3 wild-type) it was over 1000 nM. Moreover, the GI50 (in experiment [5]; in experiment [6]; with HL-60 (FLT3 wild type); in experiment [7]) was over 1000 nM throughout.

For `Cc1cc(F)cc2ncn(-c3ccc(NC(=O)Nc4cc(C(C)(C)C)on4)cc3)c12` [Compound 33, 1-(5-tert-butyl-isoxazol-3-yl)-3-[4-(5-fluoro-7-methyl-benzimidazol-1-yl)-phenyl]-urea], the GI50 was 1 to 10 nM in experiment [1]; 1 to 10 nM in experiment [2]; over 1000 nM with RS4; 11 (FLT3 wild type); over 1000 nM in experiment [3]; over 1000 nM in experiment [4]; over 1000 nM in the experiment on U937 (FLT3 wild-type). The GI50 in experiment [5] is over 1000 nM; in experiment [6], over 1000 nM; in the experiment on HL-60 (FLT3 wild type) it was 100 to 1000 nM; in [7], over 1000 nM.

Take `CC(C)(C)c1cc(NC(=O)Nc2ccc(-n3cnc4c(F)cccc43)cc2)no1` [Compound 34, 1-(5-tert-butyl-isoxazol-3-yl)-3-[4-(4-fluoro-benzimidazol-1-yl)-phenyl]-urea]: the GI50 in experiment [1] was 0.1 to 1 nM; in experiment [2], 0.1 to 1 nM; with RS4; 11 (FLT3 wild type), over 1000 nM; in [3] it was over 1000 nM; in experiment [4], over 1000 nM; in the experiment with U937 (FLT3 wild-type), over 1000 nM. In addition, the GI50 (in [5]; in experiment [6]; in the experiment on HL-60 (FLT3 wild type); in experiment [7]) was over 1000 nM in each case.

For the compound `Cc1nc2ccccc2n1-c1ccc(NC(=O)Nc2cc(C(C)(C)C)on2)cc1` [Compound 35, 1-(5-tert-butyl-isoxazol-3-yl)-3-[4-(2-methyl-benzimidazol-1-yl)-phenyl]-urea], the GI50 was 100 to 1000 nM in experiment [1]; 100 to 1000 nM in [2]; 100 to 1000 nM with RS4; 11 (FLT3 wild type); 100 to 1000 nM in experiment [3]; over 1000 nM in experiment [4]; over 1000 nM with U937 (FLT3 wild-type). The GI50 (in experiment [5]; in [6]; in the experiment with HL-60 (FLT3 wild type); in [7]) was over 1000 nM throughout.

For `CC(C)(C)c1cc(NC(=O)Nc2ccc(-n3c(Cl)nc4ccccc43)cc2)no1` [Compound 36, 1-(5-tert-butyl-isoxazol-3-yl)-3-[4-(2-chlorobenzimidazol-1-yl)-phenyl]-urea], the GI50 in [1] is 100 to 1000 nM; in experiment [2], 100 to 1000 nM; in the experiment on RS4; 11 (FLT3 wild type), over 1000 nM; in [3], over 1000 nM; in [4], over 1000 nM; with U937 (FLT3 wild-type) it was over 1000 nM. The GI50 (in experiment [5]; in [6]; in the experiment with HL-60 (FLT3 wild type); in [7]) was over 1000 nM in each case.

For the compound `Cc1cc(NC(=O)Nc2cc(C(C)(C)C)on2)ccc1-n1cnc2ccccc21` [Compound 37, 1-(4-benzimidazol-1-yl-3-methyl-phenyl)-3-(5-tert-butyl-isoxazol-3-yl)-urea], the GI50 in experiment [1] is 100 to 1000 nM; in experiment [2], 100 to 1000 nM; in the experiment with RS4; 11 (FLT3 wild type), over 1000 nM; in [3] it was over 1000 nM; in [4], over 1000 nM; in the experiment on U937 (FLT3 wild-type) it was over 1000 nM. In addition, the GI50 (in experiment [5]; in experiment [6]; in the experiment on HL-60 (FLT3 wild type); in experiment [7]) was over 1000 nM each time.

`CC(C)(C)c1cc(NC(=O)Nc2ccc(-n3cnc4ccccc43)c(Cl)c2)no1` [Compound 38, 1-(4-benzimidazol-1-yl-3-chloro-phenyl)-3-(5-tert-butyl-isoxazol-3-yl)-urea]: the GI50 in experiment [1] was 100 to 1000 nM; in experiment [2], 100 to 1000 nM; with RS4; 11 (FLT3 wild type), over 1000 nM; in experiment [3] it was over 1000 nM; in experiment [4], over 1000 nM; in the experiment on U937 (FLT3 wild-type), over 1000 nM. The GI50 (in experiment [5]; in [6]; in the experiment on HL-60 (FLT3 wild type); in experiment [7]) was over 1000 nM in each case.
